Where no end group is shown, it is not given here. [ ]: non-standard residue; d: D form. Aib = CC(C)(N)C(=O)O
What was measured:
C57BL/6 mice given MPTP = assay: Rotarod motor control test in the MPTP Parkinson mouse model; type: in vivo; settings: 10 nmol/kg i.p. once daily for 2 weeks, FIG. 3, N=6 per group
Description: A standard model to induce Parkinson like symptoms in mice is the injection of the chemical (MPTP) (Li et al., 2009). This chemical impairs or kills neurons in the brain that produce dopamine. The mice develop motor impairments, and the dopaminergic neurons in the brain are reduced in numbers and function. The enzyme tyrosine hydroxylase (TH) is required to synthesise dopamine. A loss of TH signifies a loss of dopamine production (Harkavyi et al., 2008).
Adult male C57BL/6 mice were given the dopaminergic toxin MPTP (20 mg/kg in 0.1 mL of PBS i.p. at 2-h intervals of 4 doses MPTP; Sigma) or vehicle (PBS) for one day. This treatment selectively affects dopaminergic neurons and induces Parkinson-like symptoms in mice.
The dose of peptide tested was 10 nmol/kg body weight. The peptides were administered by a once-daily intraperitoneal injection for 2 weeks. Saline injections were administered as a control. Six animals per group were injected with a peptide or a saline control.
The rotarod consists of a rotating pole that accelerates over time. Mice are placed on the rod, and motor skills are tested by accelerating the rotation. As the rotation increases, animals lose grip and fall on a cushion located below the rod. […] Each animal's endurance time was recorded, and the average was calculated. Data were analysed using a one-way ANOVA with post-hoc Bonferroni tests.

APP/PS1 mice = assay: Reversal Morris water maze test; type: in vivo
Description: Materials and methods in Example 2 are the same as Example 1 except when stated. Reagents used in Example 2 only include antibodies to p-PI3Kp85, PI3Kp85, p-Akt (ser473), Akt, p-GSK3β (Y216), and GSK3β from Abcam, Inc. Cambridge, UK. The antibody to p-tau (AT8) from Thermo Scientific USA. Mouse Anti-β-actin, Anti-Rabbit IgG, Anti-mouse IgG, CY3-Anti-mouse IgG, RIPA Lysate, BCA Protein Assay Kit, DAPI staining solution and Anti-fluorescence decay agent from Boster (Wuhan, China).
Classical Morris water maze (MWM) test was used to investigate spatial reference memory of mouse. The water maze mainly included a stainless steel pool and a platform in the pool for escape. There were several landmarks fixed to the walls of the water maze. The pool was filled with tap water at 22±2° C. The first phase was acquisition trial phase which was consisted of five training days (days 1-5) and four trials each day. The pool (diameter, 120 cm; high, 50 cm) was divided into four quadrants and the escape platform (diameter, 12 cm) hidden 1 cm beneath the water surface was placed in the center of the first quadrant. […] The escape latencies were recorded by Ethovision 3.0 software system (Noldus Information Technology, the Netherlands). […] The percentage of swimming time in target quadrant (the first quadrant) and frequency of platform crossing were recorded. […] Swimming time to target was recorded.

**Q.** How did the “impairment of motor skills (rotarod endurance time)” value (C57BL/6 mice given MPTP) turn out when “YXEGTFTSDYSIYLDKQAAXEFVNWLLAGGPSSGAPPPSKRRQRRKKRGY-NH2 (Y[Aib]EGTFTSDYSIYLDKQAA[Aib]EFVNWLLAGGPSSGAPPPSKRRQRRKKRGY-NH2) [DA5, No. 12; X=aminoisobutyric acid]” was run?
**A.** Its value is “protect mice from an impairment of motor skills induced by MPTP”.

**Q.** And the “probe test, recall of a change in escape route (reverse Morris water maze)” value (APP/PS1 mice; APP/PS1 mice vs APP/PS1-saline, FIG. 8c, 8d)?
**A.** Its value is “recalled a change in escape route to a greater extent than APP/PS1-saline mice”.

**Q.** What about the “cognitive flexibility and ability to relearn (reverse Morris water maze)” value (APP/PS1 mice; APP/PS1 mice, FIG. 8, N=8-14 per group) of the same substance?
**A.** Its value is “protects APP/PS1 mice from decreased cognitive flexibility and restores their ability to relearn”.
